Data published in the NIST ThermoML archive (doi:10.1016/j.fluid.2015.03.003).
Numbers after ± are expanded uncertainties.

Conditions: 298.15 K, 101.33 kPa, Liquid; for electrical conductivity: Alternating current cell with electrodes; for mass density: Pycnometric method; for viscosity: Vibrating wire viscometry

Compound: CCCCn1cc[n+](CCCC)c1.[Br-] [1,3-dibutylimidazolium bromide]
- electrical conductivity: 0.918 ± 0.006 S/m
- mass density: 1200 ± 560 kg/m3
- viscosity: 11.1 ± 1.8 mPa·s

Compound: CC(C)Cn1cc[n+](CC(C)C)c1.[Br-] [1,3-diisobutylimidazolium bromide]
- electrical conductivity: 0.403 ± 0.006 S/m
- mass density: 1250 ± 610 kg/m3
- viscosity: 67.6 ± 13 mPa·s

Compound: CCCCn1cc[n+](C)c1.[Br-] [1-butyl-3-methylimidazolium bromide]
- electrical conductivity: 0.08 ± 0.01 S/m
- mass density: 1230 ± 330 kg/m3
- viscosity: 363 ± 110 mPa·s

Compound: CC(C)Cn1cc[n+](C)c1.[Br-] [1-isobutyl-3-methylimidazolium bromide]
- electrical conductivity: 0.2 ± 0.004 S/m
- mass density: 1260 ± 340 kg/m3
- viscosity: 134 ± 28 mPa·s
